Source: article PMC7075946 (Frontiers in Immunology, 2020)

What was measured:
[1] = molecular target: T1, mouse TLR7 (Mus musculus, UniProt P58681); assay: cell-based
T1 sequence (P58681 27-1050): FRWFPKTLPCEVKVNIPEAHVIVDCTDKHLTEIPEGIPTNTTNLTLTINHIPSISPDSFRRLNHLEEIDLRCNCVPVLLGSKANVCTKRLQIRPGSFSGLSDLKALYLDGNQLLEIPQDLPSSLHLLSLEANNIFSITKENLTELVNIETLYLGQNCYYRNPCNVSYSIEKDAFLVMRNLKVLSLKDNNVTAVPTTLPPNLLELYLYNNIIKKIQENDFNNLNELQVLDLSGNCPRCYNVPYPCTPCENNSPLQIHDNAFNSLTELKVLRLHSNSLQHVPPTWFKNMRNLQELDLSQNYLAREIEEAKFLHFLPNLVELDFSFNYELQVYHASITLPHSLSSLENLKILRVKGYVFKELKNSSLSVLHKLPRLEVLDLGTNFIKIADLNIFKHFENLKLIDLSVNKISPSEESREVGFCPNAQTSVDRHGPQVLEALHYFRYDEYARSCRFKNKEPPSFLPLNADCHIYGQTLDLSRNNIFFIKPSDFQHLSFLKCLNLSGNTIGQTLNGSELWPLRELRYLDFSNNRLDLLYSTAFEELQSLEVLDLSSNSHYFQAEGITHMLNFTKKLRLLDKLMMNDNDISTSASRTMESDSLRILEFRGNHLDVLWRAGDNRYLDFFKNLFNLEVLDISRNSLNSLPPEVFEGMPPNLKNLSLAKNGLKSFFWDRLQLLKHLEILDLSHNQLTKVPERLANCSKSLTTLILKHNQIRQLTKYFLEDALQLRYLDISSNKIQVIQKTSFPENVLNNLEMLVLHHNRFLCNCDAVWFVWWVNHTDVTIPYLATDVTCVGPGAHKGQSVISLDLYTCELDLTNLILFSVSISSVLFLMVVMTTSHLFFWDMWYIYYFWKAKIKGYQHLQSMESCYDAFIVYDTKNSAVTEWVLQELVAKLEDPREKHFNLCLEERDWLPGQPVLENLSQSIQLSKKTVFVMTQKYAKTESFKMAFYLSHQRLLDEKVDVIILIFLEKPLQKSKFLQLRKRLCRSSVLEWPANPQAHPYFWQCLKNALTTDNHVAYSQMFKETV

[2] = test system: A/Victoria/210/2009 (H3N2); assay: Splenocyte restimulation, influenza-specific T cell responses (flow cytometry, MSD); format: in vivo, BALB/c mice; details: for influenza-specific T cell response (cytokine production of restimulated splenocytes): 5 days post-secondary vaccination, A/Vic restimulation, vs A/Vic alone
[3] = test system: human PBMCs; assay: Human PBMC intracellular cytokine staining (flow cytometry); format: cell-based; details: for frequency of mDC producing IL-12p40 / frequency of classical monocytes producing IL-12p40: 1 h plus 5 h GolgiPlug
Protocol: Human blood was obtained from healthy adult donors through a University of Montana Institutional Review Board (IRB)-approved protocol. PBMCs were separated from whole blood via density gradient separation using Histopaque 1,077 (Sigma). For PBMC-based assays, cells were resuspended at the desired cell concentration in complete media (RPMI1640+10% FBS+antibiotics). Cells were treated with the indicated compound concentrations and stimulated for 6–24 h depending on the assay as indicated in the figure legends and assays outlined below.
For flow cytometry analysis of innate cytokines, PBMCs were stimulated with indicated concentration of compound for 1 h followed by 5 h incubation with GolgiPlug (BD, 1 μL/mL) at 37°C. Post-stimulation, cells were harvested and surface stained with viability dye, and monoclonal antibodies targeting CD3 AF700 (Tonbo Bioscience, UCHT1), CD19 AF700 (Tonbo Bioscience, HIB19), CD56 AF700 (Biolegend, 5.1H11), HLA-DR BV785 (Biolegend, L243), CD14 APC-Cy7 (Biolegend, 63D3), CD16 PE-Dazzle594 (Biolegend, 3G8), CD11c BV421 (Biolegend, 3.9), and CD123 APC (Biolegend, 6H6). Following fixation and permeabilization with BD Cytofix/Cytoperm buffers, cells were stained with monoclonal antibodies targeting the intracellular cytokines IL-12p40 PE (a shared IL-12 and IL-23 subunit, Biolegend, C11.5), IL-6 FITC (Biolegend MQ2-13A5), IL-4 BV605 (Biolegend, MP4-25D2), and LAP (TGF-β) PE Cy7 [latency-associated peptide ([55]), Biolegend TW4-2F8]. Data were collected using an LSRII flow cytometer (BD) and analyzed using FlowJo 10.0 software (TreeStar).
Figure 7 Lipidated imidazoquinolines elicit T cell polarizing cytokines primarily from APCs. PBMCs from 6 healthy, adult blood donors were stimulated with 2 μM indicated TLR7/8, TLR4, or combination TLR4 + TLR7/8 agonists. After 1 h, brefeldin A (GolgiPlug) was added and cells were incubated for a further 5 h. Cells were then harvested and stained with surface antibodies for phenotyping, fixed and permeablized and stained with antibodies to detect intracellular cytokines. (A) Frequency of IL-12/IL-23+ cells, (B) frequency of IL-6+ cells, (C) frequency of TGFβ (LAP)+ cells, and (D) frequency of IL-4+ cells.

Structure (SMILES)	EC50 [1] [nM]	influenza-specific T cell response (cytokine production of restimulated splenocytes) [2]	frequency of mDC producing IL-12p40 ([3]; 2 μM)	frequency of mDC and classical monocytes expressing TGFβ (LAP) ([3]; compound alone, 2 μM)	frequency of mDC and classical monocytes expressing TGFβ (LAP) ([3]; in combination with CRX-601, 2 μM)	IL-17 response compared to A/Vic antigen alone ([2]; challenge study, 10 μg/mouse alone, 5dp2)	frequency of classical monocytes producing IL-12p40 ([3]; 2 μM)	frequencies of CD8 IFNγ+ cells ([2]; high dose 10 μg/mouse, with or without a TLR4 agonist, 5dp2)
CCCCc1nc2c(N)nc3ccccc3c2n1CCO [UM-3001]	480	did not exhibit any significantly increased cytokine production	approximately 20%	low frequencies	low frequencies			
CCCCCCCCCCCCCCCC(=O)OC[C@H](COCCOCCOCCOP(=O)(O)OCCn1c(CCCC)nc2c(N)nc3ccccc3c21)OC(=O)CCCCCCCCCCCCCCC [UM-3003]	12600	primarily a Th1 influenza-specific response	Lower frequencies			no longer elicited a significantly higher IL-17 response	Lower frequencies	
CCCCCCCCCCCCCCCC(=O)OC[C@H](COCCOCCOCCOCCOCCOCCOP(=O)(O)OCCn1c(CCCC)nc2c(N)nc3ccccc3c21)OC(=O)CCCCCCCCCCCCCCC [UM-3004]	860	primarily a Th1 influenza-specific response	Lower frequencies				Lower frequencies	
CCCCCCCC/C=C\CCCCCCCC(=O)OC[C@H](COP(=O)(O)OCCc1ccc2c(c1)nc(N)c1nc(CCCC)n(CCO)c12)OC(=O)CCCCCCC/C=C\CCCCCCCC [UM-3005]	1140	primarily a Th1 influenza-specific response	approximately 20%				approximately 20%	significantly increased
